Experimental data reported in patent US9809853B2, “Calcium-activated chloride channel involved in human sweat formation” (BRAIN Biotechnology Research and Information Network AG, priority 2012, dated 2017).

Molecular target: T1, TMEM16A(acΔe3) (Homo sapiens, UniProt Q5XXA6)
T1 construct: expressed in transfected cells
T1 sequence (Q5XXA6 1-927 isoform Q5XXA6-4): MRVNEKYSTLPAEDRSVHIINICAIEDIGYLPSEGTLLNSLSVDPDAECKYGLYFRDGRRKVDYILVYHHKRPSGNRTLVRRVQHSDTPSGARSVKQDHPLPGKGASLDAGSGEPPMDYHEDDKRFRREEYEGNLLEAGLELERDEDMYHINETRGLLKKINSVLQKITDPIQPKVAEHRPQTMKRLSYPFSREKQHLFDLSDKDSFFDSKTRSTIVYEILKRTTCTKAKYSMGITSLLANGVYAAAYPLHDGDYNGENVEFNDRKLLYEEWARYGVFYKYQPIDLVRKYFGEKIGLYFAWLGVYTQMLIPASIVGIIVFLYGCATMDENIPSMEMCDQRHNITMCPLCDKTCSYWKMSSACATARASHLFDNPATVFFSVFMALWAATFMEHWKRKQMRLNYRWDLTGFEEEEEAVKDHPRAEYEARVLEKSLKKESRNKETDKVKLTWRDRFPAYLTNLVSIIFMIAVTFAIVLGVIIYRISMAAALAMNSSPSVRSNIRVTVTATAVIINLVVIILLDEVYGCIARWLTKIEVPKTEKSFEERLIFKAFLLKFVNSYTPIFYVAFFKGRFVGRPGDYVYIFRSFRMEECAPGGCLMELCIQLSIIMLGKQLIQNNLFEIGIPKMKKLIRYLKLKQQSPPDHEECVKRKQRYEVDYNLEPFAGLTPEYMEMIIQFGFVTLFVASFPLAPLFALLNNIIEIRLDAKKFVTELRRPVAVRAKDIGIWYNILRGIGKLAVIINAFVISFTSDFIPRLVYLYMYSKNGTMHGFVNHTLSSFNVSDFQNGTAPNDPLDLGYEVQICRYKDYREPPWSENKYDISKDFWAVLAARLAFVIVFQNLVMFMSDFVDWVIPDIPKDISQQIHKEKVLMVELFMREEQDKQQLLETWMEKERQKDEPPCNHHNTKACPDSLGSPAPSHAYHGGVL
Assay: hsYFP quenching assay in NCL-SG3-hsYFP-TMEM16A(acΔe3) cells
Assay type: cell-based
Conditions: 330 μM ATP; for Effect of pretreatment on hsYFP quenching / Ca^2+-dependent Cl^− secretion after ATP: cells overexpressing TMEM16A(acΔe3)
Experimental: NCL-SG3-hsYFP, NCL-SG 3-hsYFP-TMEM16A(ac) and NCL-SG3-hsYFP-TMEM16A(acΔe3) cells were untreated (basal activity) or stimulated with ATP (330 μM). Quenching of hsYFP fluorescence was determined. The rate of I^− influx (sec^−1) was calculated from the initial slope of measured hsYFP fluorescence (ΔYFP fluorescence/Δtime) and is a direct measure of CaCC activity. For better comparison fold changes compared to basal activity of parental cells are shown. […] All influx rate differences are higly statistically significant, except the basal influx rate of parental and TMEM16A(ac) overexpressing NCL-SG3-hsYFP cells (Student's t-test, two-tailed; *** p-value<0.0001).
TMEM16A(ac) and TMEM16A(acΔe3) are present in human eccrine sweat glands and were therefore obtained by RT-PCR amplification using TRIzol® (Invitrogen) extracted RNA from freshly isolated human eccrine sweat glands using oligonucleotides (forward 5′-[…]; reverse 5′-[…]) SEQ ID NOS: 5 and 6 , which amplify full-length TMEM16A, and subsequently cloned into the proprietary eukaryotic gene expression plasmid (pEF1α-TMEM16A(ac) and pEF1α-TMEM16A(acΔe3), FIG. 6A). […] Both genes are coupled by an internal ribosomal entry site (IRES) to enable efficient translation of both open reading frames located on the same mRNA. […]
Taken together, NCL-SG3-hsYFP cells can be used to monitor Ca^2+-dependent Cl^− fluxes, which represent the initial step in primary sweat formation in sweat gland cells. […] Microplates were transferred into an automated fluorescence plate reader (FlexStation®, Molecular Devices) and cellular hsYFP fluorescence was continuously recorded every 3.5 sec until end of the experiment (excitation at 485 nm, emission at 535 nm, cutoff 515 nm). […] NCL-SG3-hsYFP cells allow quantitative evaluation of in vivo Cl^− channel activity (FIGS. 9 and 10D). To determine the exact rate of Cl^− efflux/I^− influx the hsYFP fluorescence was plotted against time (ΔYFP fluorescence/Δtime). […]

Row | SMILES | ATP-induced activity (I^− influx rate, fold) (TMEM16A(acΔe3) overexpressing cells) [fold] | Effect of pretreatment on hsYFP quenching / Ca^2+-dependent Cl^− secretion after ATP | Effect of pretreatment on hsYFP quenching / Ca^2+-dependent Cl^− secretion after ATP (listed as tannic acid)
1 | Nc1ncnc2c1ncn2[C@@H]1O[C@H](COP(=O)(O)OP(=O)(O)OP(=O)(O)O)[C@@H](O)[C@H]1O [ATP] | 2 | – | –
2 | O=C(OC[C@H]1O[C@@H](OC(=O)c2cc(O)c(O)c(OC(=O)c3cc(O)c(O)c(O)c3)c2)[C@H](OC(=O)c2cc(O)c(O)c(OC(=O)c3cc(O)c(O)c(O)c3)c2)[C@@H](OC(=O)c2cc(O)c(O)c(OC(=O)c3cc(O)c(O)c(O)c3)c2)[C@@H]1OC(=O)c1cc(O)c(O)c(OC(=O)c2cc(O)c(O)c(O)c2)c1)c1cc(O)c(O)c(OC(=O)c2cc(O)c(O)c(O)c2)c1 [TA, tannic acid] | – | significant reduction of hsYFP quenching | inhibited
